Test results taken from article PMC10386886, “First-in-class multifunctional TYMS nonclassical antifolate inhibitor with potent in vivo activity that prolongs survival” (JCI Insight, 2023).
Like-named read-outs stand apart in the source and are kept apart here.

Experiments:
purified human TYMS [1] = target: T1, purified human TYMS (Homo sapiens, UniProt P04818); assay: Competitive drug displacement assay (tritium TYMS assay); assay type: biochemical; settings: for dUMP conversion with increasing 5,10-mTHF concentration / dUMP conversion with increasing dUMP concentration: TS preincubated with drug, Figure 7
T1 construct: 6xHis (N); made in house; host or cells: E. coli BL21 (DE3), vector pQE80L-hTYMS
T1 sequence (P04818 whole entry): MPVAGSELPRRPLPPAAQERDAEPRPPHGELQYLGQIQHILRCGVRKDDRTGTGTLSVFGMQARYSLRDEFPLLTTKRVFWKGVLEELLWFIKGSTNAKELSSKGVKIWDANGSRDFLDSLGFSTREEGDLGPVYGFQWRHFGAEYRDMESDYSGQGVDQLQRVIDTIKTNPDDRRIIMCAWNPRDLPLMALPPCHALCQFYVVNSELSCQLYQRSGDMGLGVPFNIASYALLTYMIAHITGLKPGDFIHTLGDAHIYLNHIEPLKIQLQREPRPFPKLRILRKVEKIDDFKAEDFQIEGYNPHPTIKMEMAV
Experimental: For these experiments the TYMS protein was first incubated with each drug, and the reaction was then initiated by addition of 5,10-mTHF and dUMP using different concentrations of either 5,10-mTHF or dUMP to change the substrate/drug ratio. If there was competition between one of the substrates and the drug for the same binding site, then increasing the substrate concentration would displace more of the prebound drug and shift the equilibrium toward the enzyme/substrate complex, thus allowing the conversion of dUMP to proceed (Figure 7A). […]
all components including 2 µg TYMS protein to show the range of the assay, the background signal, and the dependence on 5,10-mTHF (Supplemental Figure 2C). To determine the signal from the [5-3H]dUMP tracer used in each reaction the same amount of the dUMP substrate with the [5-3H]dUMP tracer accounting for 0.06% of the final dUMP concentration was added directly to 5 mL of ultima gold liquid scintillation cocktail (Supplemental Figure 2C).
All reactions were performed in biological duplicate and technical duplicate. Results were analyzed using GraphPad Prism 9.
Competitive drug displacement assay
The tritium based TYMS catalytic activity assay was modified to determine if TYMS inhibition from 19-S, 19-S5, and 19-S7 was the result of competitive binding with either the dUMP substrate or the 5,10-mTHF cofactor. The competitive drug displacement assay utilized the standard reaction conditions for the tritium-based TYMS catalytic activity assay including 40 µM dUMP (Sigma Aldrich, Cat # D3876) with the [5- 3H]dUMP tracer (ViTrax, VT122) accounting for 0.06% of the final dUMP concentration and 100 µM 5,10- methylene tetrahydrofolate (defined as 1x dUMP and 1x 5,10-mTHF). Concentrations of total dUMP and 5,10- mTHF were then changed relative to these 1x concentrations to concisely indicate the changes in either the substrate or cofactor concentration. The highest 5x concentration of 5,10 - […]
5x concentration of total dUMP was not limited by solubility, although increases were performed in the same increments as 5,10-mTHF for comparison and 0.06% of the [5-3H]dUMP tracer was maintained at all concentrations. The remaining components in each 200 µL reaction were consistent in all reactions and included 2 µg of purified human TYMS in 50 mM KH2PO4 (Sigma Aldrich, Cat # P0662) and 100 mM β- mercaptoethanol (Sigma Aldrich, Cat # M7522). Control antifolate inhibitor PEM (Sigma Aldrich, Cat # PHR1596) was performed for reference of a TYMS specific classical antifolate and to […]
Human TYMS and DHFR preparation
Human Thymidylate Synthase (hTYMS) and human Dihydrofolate Reductase (hDHFR) were both expressed in BL21 (DE3) E. coli cells, using a standard BL21 transformation protocol, with the expression vector pQE80L-hTYMS (gift from Maria Paola Costi, University of Modena and Reggio Emilio, Italy) and pET100/D- TOPO (Invitrogen, Cat # K10001), respectively. Both vectors contained an N-terminal 6x Histidine tag attached to either hTYMS or hDHFR. After bacterial transformation, cells

purified human TYMS [2] = target: T1, purified human TYMS; assay: Tritium-based TYMS catalytic activity assay; assay type: biochemical; settings: for TS activity, comparison at decreasing drug concentrations: Figure 6C; for TS activity (conversion of dUMP) in the presence of drug: drug 250 μM, 10 μg/mL TS protein, Figure 1B
Experimental: To determine the inhibition of TYMS activity, we utilized a tritium-based TYMS catalytic assay (Figure 1A) to quantify the conversion of dUMP, which is proportional to TYMS activity ([33]). The assay was based on a previously published protocol ([33]) and modified to determine the amount of purified human TYMS (hTYMS) to be used in the conversion of dUMP to dTMP. […]
Tritium based TYMS catalytic activity assay
The catalytic activity of TYMS was determined by measuring the release of [3H] from [5-3H]dUMP (ViTrax, Cat # VT122) resulting from the conversion of dUMP to dTMP as previously described (2, 3).
The reaction conditions were optimized to determine the amount of TYMS protein needed to establish […]
reactions performed without TYMS or without the 5,10-methylene tetrahydrofolate (5,10-mTHF) cofactor (Supplemental Figure 2 and Supplemental methods). Reactions were performed in 50 mM KH2PO4 (Sigma Aldrich, Cat # P0662) at pH 7.2 using 2 µg of purified human TYMS. Reactions were performed in a final volume of 200 µL with 100 mM β-mercaptoethanol (Sigma Aldrich, Cat # M7522), 40 µM dUMP (Sigma Aldrich, Cat # D3876), 100 µM 5,10-mTHF, and the [5-3H]dUMP tracer (ViTrax, Cat # VT122) accounting for 0.06% of the final dUMP concentration in the reaction. The 5,10-mTHF used in the reaction was separately generated from tetrahydrofolic acid (Sigma Aldrich, Cat # T3125) by dissolving the solid in 10 mM KH2PO4 with 143 mM β-mercaptoethanol (1:100 from 14.3 M pure liquid), and 6.35 mM formaldehyde (Sigma Aldrich, Cat # 47608) to yield a 100 mM stock solution of 5,10- mTHF. Reactions were initiated by the addition of the dUMP substrate and 5,10-mTHF cofactor, then incubated at 37 °C for 30 minutes. […]
before the reaction was initiated by the addition of the dUMP substrate and 5,10-mTHF cofactor.
Reactions were terminated by the addition of 100 µL of ice-cold 20% trichloroacetic acid (Sigma Aldrich, Cat # T6399), then excess [5-3H]dUMP was removed by the addition of 200 µL of an albumin-coated activated charcoal solution. The albumin-coated activated charcoal solution was prepared by mixing 10 g of acid- washed activated dextran coated charcoal (Sigma Aldrich, Cat # C6241) with 2.5 g of bovine albumin (Sigma Aldrich, Cat # A1933) in 100 mL of H2O. The suspension was incubated at room temperature for 30 minutes and then centrifuged for 30 minutes at 10,000 x g. Then 150 µL of the supernatant was collected and added to 5 mL of ultima gold liquid scintillation cocktail (Perkin Elmer, Cat # 6013326, lot: 77-19085), and scintillation measurements were perform using a liquid scintillation counter (Beckman Coulter LS6500) to determine [3H]H2O levels in each sample. For all experiments, positive control reactions were performed with no drug representing 100% TYMS activity, and negative

DHFR = target: T2, DHFR (Homo sapiens, UniProt P00374); assay: Absorbance-based DHFR activity assay; assay type: biochemical
T2 construct: purchased Sigma D6566 (kit CS0340)
T2 sequence (P00374 1-187): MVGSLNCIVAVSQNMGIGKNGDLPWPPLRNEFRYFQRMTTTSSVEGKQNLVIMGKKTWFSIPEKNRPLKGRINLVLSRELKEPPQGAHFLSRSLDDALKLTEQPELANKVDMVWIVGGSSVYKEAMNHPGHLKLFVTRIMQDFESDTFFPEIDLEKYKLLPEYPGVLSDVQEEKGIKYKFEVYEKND
Experimental: DHFR assay kit (Sigma Aldrich, Cat # CS0340) as described by the manufacturer. 0.1-unit DHFR
analogues or control drugs, 6 μL NADPH Cat # N6505 solution and 5 μl of dihydrofolic acid (DHFR
substrate) (Sigma, Cat # D7006). The reaction was then read on the spectrophotometer at 340 nm at
22 °C every 15 seconds for 2.5 minutes.

MIA PaCa-2 cells = assay: MTS viability assay, MIA PaCa-2; assay type: cell-based; settings: Homo sapiens, 72-hour drug treatment, Figure 6E, highest concentration 350 μM
Experimental: Cells were harvested after 72 hours, and cell pellets were stored at –80°C. […] After 72 hours, cell viability was assessed by reduction of MTS using Cell Titer 96 R Aqueous One Solution Cell Proliferation Assay Kit (Promega, catalog G8081), following manufacturer’s recommendations. […] was measured on a SpectraMax M3 (Molecular Devices). Data were plotted in GraphPad Prism 9 to determine GI50 concentration. Chemical synthesis details, including characterization of each compound, can be found in the Supplemental section associated with this publication.

dUMP conversion with increasing 5,10-mTHF concentration (purified human TYMS [1]) | Compound | dUMP conversion with increasing dUMP concentration (purified human TYMS [1]) | TS activity, comparison at decreasing drug concentrations (purified human TYMS [2]) | TS activity (conversion of dUMP) in the presence of drug (purified human TYMS [2]) | also measured
increased the amount of dUMP conversion | CCc1nc(N)nc(N)c1-c1ccc(N(C)Cc2ccc(OC)cc2)c([N+](=O)[O-])c1 [Compound 19-S5] | the amount of dUMP conversion did not increase | greater TYMS inhibition than both MTX and PEM |  | Mechanism of TYMS inhibition (purified human TYMS [1]): blocking the folate-binding site; TS activity, screen of 19-S series analogs (purified human TYMS [2]; 250 μM, Figure 6A): inhibited TYMS activity; DHFR activity, comparison at reduced drug concentrations (DHFR; Figure 6D): potent TYMS and DHFR inhibition; GI50 (MIA PaCa-2 cells): 280 nM
 | CCc1nc(N)nc(N)c1-c1ccc(NCCOCCOCCN)c([N+](=O)[O-])c1 [Compound 19-S10] |  |  |  | DHFR activity, screen of 19-S series analogs (DHFR; 1 μM, Figure 6B): exception
 | O=c1[nH]c(=O)n([C@@H]2O[C@H](CO)[C@@H](O)[C@H]2O)cc1F [FUrd, 5-fluorouridine] |  |  | inactive | 
 | O=c1[nH]c(=O)n([C@H]2C[C@H](O)[C@@H](CO)O2)cc1F [FdUrd, 5-fluoro-2′-deoxyuridine] |  |  | reduced conversion of dUMP | 
increased the dUMP conversion | Nc1nc2[nH]cc(CCc3ccc(C(=O)N[C@@H](CCC(=O)O)C(=O)O)cc3)c2c(=O)[nH]1 [PEM, pemetrexed] | did not increase dUMP conversion | greater TYMS inhibition than the MTX antifolate |  | DHFR activity, comparison at reduced drug concentrations (DHFR): less effective against DHFR
